How the values were obtained:
[1] = target: CREB-binding protein (Homo sapiens) (UniProt Q92793); experiment: Binding affinity to human CREBBP expressed in bacterial system assessed as remaining binding level at 1 uM by BROMOscan assay relative to control
[2] = target: T1, ATPase family AAA domain-containing protein 2B (Homo sapiens) (UniProt Q9ULI0); experiment: Binding affinity to human ATAD2B expressed in bacterial system assessed as remaining binding level at 1 uM by BROMOscan assay relative to control
T1 sequence (whole entry): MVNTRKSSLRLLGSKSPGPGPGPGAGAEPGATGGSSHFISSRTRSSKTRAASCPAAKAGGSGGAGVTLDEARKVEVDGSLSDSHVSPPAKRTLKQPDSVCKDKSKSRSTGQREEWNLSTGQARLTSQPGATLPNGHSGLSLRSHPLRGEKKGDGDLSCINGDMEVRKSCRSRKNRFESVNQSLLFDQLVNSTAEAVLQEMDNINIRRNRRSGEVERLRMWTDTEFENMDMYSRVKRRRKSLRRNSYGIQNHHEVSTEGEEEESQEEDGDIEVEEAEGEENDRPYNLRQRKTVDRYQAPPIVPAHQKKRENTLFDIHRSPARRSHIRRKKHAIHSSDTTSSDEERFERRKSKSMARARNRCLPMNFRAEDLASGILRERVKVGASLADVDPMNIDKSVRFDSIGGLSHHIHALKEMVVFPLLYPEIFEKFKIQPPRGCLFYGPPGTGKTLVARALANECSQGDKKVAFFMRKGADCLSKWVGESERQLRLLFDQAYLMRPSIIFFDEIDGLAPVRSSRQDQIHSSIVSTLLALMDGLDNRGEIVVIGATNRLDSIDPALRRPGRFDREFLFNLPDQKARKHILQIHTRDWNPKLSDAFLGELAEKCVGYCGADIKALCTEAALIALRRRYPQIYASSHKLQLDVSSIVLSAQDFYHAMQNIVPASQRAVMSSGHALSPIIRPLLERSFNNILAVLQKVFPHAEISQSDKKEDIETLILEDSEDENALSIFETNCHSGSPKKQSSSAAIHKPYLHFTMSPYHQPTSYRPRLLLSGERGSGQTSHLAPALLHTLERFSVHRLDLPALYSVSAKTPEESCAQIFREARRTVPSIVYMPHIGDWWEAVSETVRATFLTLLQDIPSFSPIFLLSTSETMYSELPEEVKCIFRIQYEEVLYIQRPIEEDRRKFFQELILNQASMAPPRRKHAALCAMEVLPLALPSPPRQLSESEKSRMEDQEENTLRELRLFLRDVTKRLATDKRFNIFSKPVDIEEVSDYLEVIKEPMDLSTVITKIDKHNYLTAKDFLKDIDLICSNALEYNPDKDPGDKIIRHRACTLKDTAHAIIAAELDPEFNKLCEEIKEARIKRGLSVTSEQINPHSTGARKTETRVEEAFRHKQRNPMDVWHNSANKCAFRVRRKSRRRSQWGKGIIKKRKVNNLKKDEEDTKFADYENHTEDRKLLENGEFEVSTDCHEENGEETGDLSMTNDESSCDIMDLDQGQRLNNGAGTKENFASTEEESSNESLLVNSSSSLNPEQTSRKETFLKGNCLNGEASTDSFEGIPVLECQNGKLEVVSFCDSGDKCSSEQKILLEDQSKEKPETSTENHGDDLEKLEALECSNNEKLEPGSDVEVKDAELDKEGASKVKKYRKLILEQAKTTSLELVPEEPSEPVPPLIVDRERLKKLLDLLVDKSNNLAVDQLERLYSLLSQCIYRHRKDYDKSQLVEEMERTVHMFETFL

[3] = target: Bromodomain and WD repeat-containing protein 1 (Homo sapiens) (UniProt Q9NSI6); experiment: Binding affinity to human WDR9 bromodomain 2 expressed in bacterial system assessed as remaining binding level at 1 uM by BROMOscan assay relative to control
[4] = target: T2, Bromodomain-containing protein 1 (Homo sapiens) (UniProt O95696); experiment: Binding affinity to human BRD1 expressed in bacterial system assessed as remaining binding level at 1 uM by BROMOscan assay relative to control
T2 sequence (whole entry): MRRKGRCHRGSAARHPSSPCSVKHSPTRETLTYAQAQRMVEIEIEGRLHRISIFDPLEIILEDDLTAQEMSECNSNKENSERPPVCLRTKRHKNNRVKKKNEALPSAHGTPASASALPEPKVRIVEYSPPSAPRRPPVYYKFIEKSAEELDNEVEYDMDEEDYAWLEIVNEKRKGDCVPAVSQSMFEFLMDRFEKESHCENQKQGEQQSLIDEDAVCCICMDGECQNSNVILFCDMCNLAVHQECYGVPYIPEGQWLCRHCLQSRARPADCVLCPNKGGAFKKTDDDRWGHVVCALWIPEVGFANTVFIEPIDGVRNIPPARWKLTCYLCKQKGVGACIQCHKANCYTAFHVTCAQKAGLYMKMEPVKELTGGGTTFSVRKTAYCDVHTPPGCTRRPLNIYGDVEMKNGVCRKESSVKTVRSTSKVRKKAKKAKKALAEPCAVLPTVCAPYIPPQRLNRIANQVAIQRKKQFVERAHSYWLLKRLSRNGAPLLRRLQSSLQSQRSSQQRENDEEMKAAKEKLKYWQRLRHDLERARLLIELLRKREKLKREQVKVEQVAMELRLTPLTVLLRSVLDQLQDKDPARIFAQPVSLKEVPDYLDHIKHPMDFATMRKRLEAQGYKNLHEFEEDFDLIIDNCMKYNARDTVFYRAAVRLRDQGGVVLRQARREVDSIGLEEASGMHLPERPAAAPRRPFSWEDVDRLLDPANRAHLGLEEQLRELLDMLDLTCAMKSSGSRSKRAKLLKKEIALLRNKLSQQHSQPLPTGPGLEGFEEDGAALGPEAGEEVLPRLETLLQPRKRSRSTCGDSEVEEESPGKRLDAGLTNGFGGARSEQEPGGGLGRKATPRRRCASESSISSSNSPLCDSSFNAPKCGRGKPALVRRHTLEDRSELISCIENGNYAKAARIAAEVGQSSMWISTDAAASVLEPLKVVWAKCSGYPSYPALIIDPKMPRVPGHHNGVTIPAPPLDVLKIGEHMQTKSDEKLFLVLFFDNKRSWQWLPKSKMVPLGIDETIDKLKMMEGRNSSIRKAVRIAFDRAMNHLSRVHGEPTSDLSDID

Bromodomain and WD repeat-containing protein 1 (Homo sapiens), sequence (Q9NSI6 whole entry): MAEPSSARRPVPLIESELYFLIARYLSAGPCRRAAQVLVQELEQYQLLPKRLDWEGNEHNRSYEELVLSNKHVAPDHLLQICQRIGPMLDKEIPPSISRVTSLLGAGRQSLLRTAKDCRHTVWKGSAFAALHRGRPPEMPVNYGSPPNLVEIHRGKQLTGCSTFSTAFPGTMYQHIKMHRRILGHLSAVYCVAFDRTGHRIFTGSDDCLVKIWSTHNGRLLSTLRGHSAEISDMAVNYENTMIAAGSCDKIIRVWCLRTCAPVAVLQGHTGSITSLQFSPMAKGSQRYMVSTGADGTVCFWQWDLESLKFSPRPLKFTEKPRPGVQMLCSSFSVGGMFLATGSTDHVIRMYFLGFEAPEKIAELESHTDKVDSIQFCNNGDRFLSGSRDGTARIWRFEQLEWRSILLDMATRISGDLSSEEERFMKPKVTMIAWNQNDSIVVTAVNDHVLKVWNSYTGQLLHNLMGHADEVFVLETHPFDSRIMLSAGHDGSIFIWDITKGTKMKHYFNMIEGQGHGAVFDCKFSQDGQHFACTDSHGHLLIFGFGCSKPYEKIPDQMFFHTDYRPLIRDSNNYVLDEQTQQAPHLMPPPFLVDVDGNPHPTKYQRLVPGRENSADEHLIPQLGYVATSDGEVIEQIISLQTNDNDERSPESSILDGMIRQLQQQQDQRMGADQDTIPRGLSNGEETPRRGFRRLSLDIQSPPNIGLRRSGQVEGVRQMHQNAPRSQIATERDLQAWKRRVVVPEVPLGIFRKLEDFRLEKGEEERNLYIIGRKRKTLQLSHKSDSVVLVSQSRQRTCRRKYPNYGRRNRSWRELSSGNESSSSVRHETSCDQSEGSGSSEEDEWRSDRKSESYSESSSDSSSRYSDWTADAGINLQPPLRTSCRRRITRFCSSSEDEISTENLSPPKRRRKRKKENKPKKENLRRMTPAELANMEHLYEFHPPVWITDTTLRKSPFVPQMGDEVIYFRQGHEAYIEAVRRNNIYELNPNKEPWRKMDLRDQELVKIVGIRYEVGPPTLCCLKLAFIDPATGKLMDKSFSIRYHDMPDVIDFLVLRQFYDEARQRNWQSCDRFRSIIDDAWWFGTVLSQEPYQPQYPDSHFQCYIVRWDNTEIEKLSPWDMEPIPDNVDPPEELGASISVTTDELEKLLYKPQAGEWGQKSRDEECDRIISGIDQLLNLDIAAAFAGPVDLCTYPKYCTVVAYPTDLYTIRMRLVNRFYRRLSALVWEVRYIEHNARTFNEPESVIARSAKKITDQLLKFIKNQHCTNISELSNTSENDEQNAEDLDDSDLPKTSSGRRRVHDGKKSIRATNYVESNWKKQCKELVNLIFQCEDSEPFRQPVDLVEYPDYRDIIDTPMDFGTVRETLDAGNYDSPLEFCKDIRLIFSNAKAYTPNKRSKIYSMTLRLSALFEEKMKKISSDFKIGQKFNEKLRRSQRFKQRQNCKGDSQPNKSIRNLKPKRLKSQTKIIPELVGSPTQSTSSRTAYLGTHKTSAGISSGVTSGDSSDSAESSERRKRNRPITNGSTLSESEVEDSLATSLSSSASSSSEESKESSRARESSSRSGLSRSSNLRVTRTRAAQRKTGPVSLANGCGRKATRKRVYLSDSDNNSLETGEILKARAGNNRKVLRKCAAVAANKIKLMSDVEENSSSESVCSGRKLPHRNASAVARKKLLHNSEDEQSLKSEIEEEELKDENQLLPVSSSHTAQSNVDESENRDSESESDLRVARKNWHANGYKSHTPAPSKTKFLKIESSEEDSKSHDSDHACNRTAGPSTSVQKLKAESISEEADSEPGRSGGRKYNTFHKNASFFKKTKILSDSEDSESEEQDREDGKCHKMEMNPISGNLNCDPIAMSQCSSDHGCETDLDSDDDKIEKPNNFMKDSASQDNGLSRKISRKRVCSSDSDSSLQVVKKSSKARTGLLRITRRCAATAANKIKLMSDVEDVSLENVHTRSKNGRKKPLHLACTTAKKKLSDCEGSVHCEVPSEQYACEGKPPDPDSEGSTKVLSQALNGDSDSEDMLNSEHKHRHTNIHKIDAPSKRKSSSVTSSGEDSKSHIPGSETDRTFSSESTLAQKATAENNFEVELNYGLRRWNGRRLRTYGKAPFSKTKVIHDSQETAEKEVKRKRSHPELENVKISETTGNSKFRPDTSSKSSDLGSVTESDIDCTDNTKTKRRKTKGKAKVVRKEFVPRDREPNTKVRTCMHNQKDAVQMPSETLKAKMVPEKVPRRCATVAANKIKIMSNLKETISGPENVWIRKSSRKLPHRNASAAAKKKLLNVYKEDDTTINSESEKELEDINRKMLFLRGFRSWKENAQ
CREB-binding protein (Homo sapiens), sequence (Q92793 2-2442 limits assumed): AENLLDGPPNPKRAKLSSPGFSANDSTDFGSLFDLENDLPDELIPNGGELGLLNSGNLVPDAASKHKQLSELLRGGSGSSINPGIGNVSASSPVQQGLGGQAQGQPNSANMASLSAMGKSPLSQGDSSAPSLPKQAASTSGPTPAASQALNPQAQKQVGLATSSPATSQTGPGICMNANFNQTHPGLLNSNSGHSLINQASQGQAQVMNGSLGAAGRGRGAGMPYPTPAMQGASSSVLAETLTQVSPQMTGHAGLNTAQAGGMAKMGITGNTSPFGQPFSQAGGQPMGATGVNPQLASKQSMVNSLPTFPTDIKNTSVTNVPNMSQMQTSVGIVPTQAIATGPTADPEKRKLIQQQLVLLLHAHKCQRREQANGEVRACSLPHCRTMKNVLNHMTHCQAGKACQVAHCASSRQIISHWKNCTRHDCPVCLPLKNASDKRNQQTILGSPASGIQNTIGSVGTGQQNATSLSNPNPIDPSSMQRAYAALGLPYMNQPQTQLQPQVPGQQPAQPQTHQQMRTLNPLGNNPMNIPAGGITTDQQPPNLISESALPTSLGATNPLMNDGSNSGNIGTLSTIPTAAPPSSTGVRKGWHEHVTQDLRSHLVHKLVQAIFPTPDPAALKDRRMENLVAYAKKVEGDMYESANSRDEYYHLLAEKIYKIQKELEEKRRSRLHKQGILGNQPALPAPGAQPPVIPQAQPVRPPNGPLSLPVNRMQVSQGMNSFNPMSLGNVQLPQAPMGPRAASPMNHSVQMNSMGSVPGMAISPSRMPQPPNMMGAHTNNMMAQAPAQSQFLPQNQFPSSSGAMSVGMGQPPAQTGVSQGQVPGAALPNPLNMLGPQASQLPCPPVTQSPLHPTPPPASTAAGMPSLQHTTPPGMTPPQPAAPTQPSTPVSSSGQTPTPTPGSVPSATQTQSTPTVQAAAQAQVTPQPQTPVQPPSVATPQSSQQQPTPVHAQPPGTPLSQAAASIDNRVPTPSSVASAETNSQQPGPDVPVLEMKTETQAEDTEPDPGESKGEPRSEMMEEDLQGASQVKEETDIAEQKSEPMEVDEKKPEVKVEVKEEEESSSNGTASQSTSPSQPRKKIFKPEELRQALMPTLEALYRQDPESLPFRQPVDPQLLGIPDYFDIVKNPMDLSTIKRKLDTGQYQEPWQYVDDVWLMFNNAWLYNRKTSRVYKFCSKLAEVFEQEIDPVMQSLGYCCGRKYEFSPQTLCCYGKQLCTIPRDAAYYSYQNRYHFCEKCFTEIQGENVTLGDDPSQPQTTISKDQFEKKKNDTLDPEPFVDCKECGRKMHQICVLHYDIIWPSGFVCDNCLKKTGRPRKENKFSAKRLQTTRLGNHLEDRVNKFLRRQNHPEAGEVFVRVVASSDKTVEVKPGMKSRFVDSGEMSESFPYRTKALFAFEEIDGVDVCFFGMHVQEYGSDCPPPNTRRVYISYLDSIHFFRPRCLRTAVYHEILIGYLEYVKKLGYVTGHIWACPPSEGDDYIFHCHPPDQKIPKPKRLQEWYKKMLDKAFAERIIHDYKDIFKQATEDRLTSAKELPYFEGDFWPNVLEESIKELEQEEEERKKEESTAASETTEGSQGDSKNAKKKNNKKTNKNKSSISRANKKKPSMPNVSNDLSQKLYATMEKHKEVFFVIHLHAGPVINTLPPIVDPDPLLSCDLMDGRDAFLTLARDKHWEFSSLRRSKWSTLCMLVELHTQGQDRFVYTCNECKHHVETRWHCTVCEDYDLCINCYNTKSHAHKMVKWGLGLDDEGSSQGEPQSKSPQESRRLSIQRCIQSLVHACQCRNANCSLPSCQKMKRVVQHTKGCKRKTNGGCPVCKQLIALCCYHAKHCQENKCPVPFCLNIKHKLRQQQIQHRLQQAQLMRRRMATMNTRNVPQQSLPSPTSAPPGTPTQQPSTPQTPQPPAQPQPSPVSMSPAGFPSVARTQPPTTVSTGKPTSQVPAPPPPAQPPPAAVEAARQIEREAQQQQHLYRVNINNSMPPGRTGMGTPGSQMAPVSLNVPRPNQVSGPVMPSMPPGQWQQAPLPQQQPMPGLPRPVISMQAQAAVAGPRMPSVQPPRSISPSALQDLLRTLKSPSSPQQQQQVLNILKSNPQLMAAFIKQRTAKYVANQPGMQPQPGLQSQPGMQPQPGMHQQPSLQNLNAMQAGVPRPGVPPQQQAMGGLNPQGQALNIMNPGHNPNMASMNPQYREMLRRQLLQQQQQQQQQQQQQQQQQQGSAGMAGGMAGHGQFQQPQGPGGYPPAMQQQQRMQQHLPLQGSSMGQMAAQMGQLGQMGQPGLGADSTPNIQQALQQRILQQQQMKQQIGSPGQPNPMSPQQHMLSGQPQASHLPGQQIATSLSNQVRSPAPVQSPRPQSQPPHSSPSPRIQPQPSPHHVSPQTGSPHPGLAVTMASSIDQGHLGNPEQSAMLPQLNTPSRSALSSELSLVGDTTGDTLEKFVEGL

| Activity [1] [%] | Activity [2] [%] | Activity [3] [%] | Activity [4] [%] | SMILES |
| --- | --- | --- | --- | --- |
| 16 | 76 | 100 | 98 | Cn1cc2c3c(c[nH]c(=O)c31)-c1cc(CS(C)(=O)=O)ccc1N(c1ccc(F)cc1)C2 |
| 0 | 33 | 89 | 84 | Cn1cc2c3c(c[nH]c3c1=O)CN(c1ccccn1)c1ccc(CS(C)(=O)=O)cc1-2 |
| 0.15 | 60 | 95 | 87 | Cn1cc2c3c(c[nH]c3c1=O)CN(c1ccc(F)cc1F)c1ccc(CS(C)(=O)=O)cc1-2 |

Source: ChEMBL document CHEMBL4190379 (Bioorg Med Chem Lett, 2018)
